Read-outs that look alike come from different tables or passages of the source.

We go through 2 compounds from publication PMC5343914, “Phytochemical Analysis of Agrimonia pilosa Ledeb, Its Antioxidant Activity and Aldose Reductase Inhibitory Potential” (International Journal of Molecular Sciences, 2017).

Test [1] is described as follows: DPPH free radical scavenging capacity. The method, then: The stable free radical was used to determine the free radical-scavenging activity of the extracts. Briefly, a 0.32 mM solution of DPPH in MeOH was prepared, and 180 µL of this solution was mixed with 30 µL of each sample at concentrations of 0.05–1.0 mg/mL in DMSO. After 20 min of incubation in the darkroom, the decrease in the absorbance of the solution was measured at 570 nm on a microplate reader (EL800 Universal Microplate reader, Bio-Tek instruments, Winooski, VT, USA). DPPH inhibitory activity was expressed as the percentage inhibition (%) of DPPH in the aforementioned assay system, and was calculated as [1 − (Asample − Ablank/Acontrol − Ablank)] × 100%, where Acontrol is the absorbance of DPPH solution (180 µL) with methanol (30 µL); Ablank is the absorbance of distilled water (180 µL) with methanol (30 µL); Asample is the absorbance of DPPH solution (180 µL) with sample solution (30 µL).

Test [2] has as its target T1, recombinant human aldose reductase (RHAR) (Homo sapiens, UniProt P15121).
T1 construct: purchased Wako Pure Chemical Industries (Osaka, Japan)
The test can be described thus: Determination of inhibition type of RHAR (Lineweaver-Burk plots). Format: biochemical. Particulars: DL-glyceraldehyde 1.0 to 25.0 mM.
Procedure: Reaction mixtures consisted of 0.1 M potassium phosphate, 1.6 mM NADPH, and 2 mM of RHAR with varied concentrations of substrate DL-glyceraldehyde and AR inhibitor in a total volume of 600 μL. […] RHAR activity was assayed by measuring the decrease in absorption of NADPH after substrate addition at 340 nm using a Bio Tek Power Wave XS spectrophotometer (Bio Tek Instruments, Winooski, VT, USA) [41].

Test [3] has as its system sorbitol accumulation in rat lenses. The test can be described thus: Lens culture and intracellular sorbitol measurement (ex vivo). Particulars: compound 5.0 μg/mL; for Inhibition (%) of sorbitol accumulation in rat lens: isolated rat lens ex vivo; for Sorbitol Content (mg)/Lens Wet Weight (g): isolated rat lens, 30 mM glucose medium, 6 d. The method, then:
Lenses isolated from 10-week-old Sprague–Dawley rats using the registration number mentioned in the section of 4.5 were cultured for 6 d in TC-199 medium that contained 15% fetal bovine serum, 100 units/mL penicillin, and 0.1 mg/mL streptomycin, under sterile conditions and an atmosphere of 5% CO2 and 95% air at 37 °C. Samples were dissolved in DMSO. The lenses were divided into three groups and cultured in medium containing 30 mM glucose and RLAR-active compounds. Each lens was placed in a well containing 2.0 mL of medium. Sorbitol was determined by HPLC using the methods mentioned in the section of 4.7 after its derivatization by reaction with benzoic acid to a fluorescent compound [42].

Test [4] addresses T2, rat lens aldose reductase (RLAR) (Rattus norvegicus, UniProt P07943).
T2 construct: The supernatant was collected and used as the RLAR; from tissue; host or cells: Sprague–Dawley rat lens homogenate, 10,000 x g supernatant
The experiment in a line: Determination of RLAR inhibition in vitro (NADPH decrease at 340 nm, DL-glyceraldehyde substrate).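 As to all read-outs here: crude enzyme from Sprague–Dawley rat lens homogenate supernatant, absorbance read over 3 min in pH 6.2 potassium phosphate buffer with 1.6 mM NADPH and 25 mM substrate.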 Type of test: biochemical. More on the design: inhibition: dose or concentration left out as unconfirmed. The note with it: for IC50: Experiments.
Procedure: Crude RLAR was prepared as follows: lenses weighing 250–280 g were removed from Sprague–Dawley rats and frozen at −70 °C until use. […] Non-cataractous transparent lenses were pooled and a homogenate was prepared in 0.1 M phosphate-buffered saline (pH 6.2). RLAR homogenate was then centrifuged at 10,000× g for 20 min at 4 °C in a refrigerated centrifuge. The supernatant was collected and used as the RLAR. All procedures were carried out at 4 °C [37].
RLAR activity was assayed spectrophotometrically by measuring the decrease in the absorption of NADPH at 340 nm over a 3-min period using DL-glyceraldehyde as the substrate. Each 1.0 mL cuvette contained equal units of the enzyme, 0.10 M potassium phosphate buffer (pH 6.2), 1.6 mM NADPH, 25 mM DL-glyceraldehyde (the substrate), and an inhibitor or dimethyl sulfoxide (DMSO).

Test [5] in a line: Offline DPPH HPLC assay of the n-BuOH fraction (peak area reduction). Particulars: n-BuOH fraction 20 mg/mL mixed with […] DPPH, 20 min, HPLC 254 nm. The method, then: The sample was analyzed using an Agilent Technologies modular model 1200 system with a vacuum degasser (G1322A), a quaternary pump (G1311A), an auto-sampler (G1329A), a thermo-statted column compartment (G1316A), and a variable wavelength detector (VWD, G1314D) system. The separation was achieved on an Eclipse XDB-phenyl column (150 mm × 4.6 mm, 3.5 μm) maintained at 30 °C. The elution solvents were 0.1% trifluoroacetic acid (A) and MeOH (B) with the following gradient: 20%–30% B (0–3 min), 30%–40% B (3–10 min), 40%–50% B (10–20 min), 50%–60% B […], 60%–100% B (25–35 min), 100%–100% B (35–38 min), 100%–20% B (38–40 min), and 20%–20% B (40–45 min). Injection volume was 10 µL (sample concentration: 1 mg/mL) and UV wavelength was 254 nm.
The offline DPPH HPLC assay was performed by modifying a previously-described protocol. Thirty microliters (20 mg/mL in MeOH) of the n-BuOH fraction from APE were mixed with 180 μL prepared DPPH solution (0.32 mM). The mixture was incubated in the dark for 20 min, then filtered through a 0.45-μm filter for HPLC analysis. The n-BuOH (20 mg/mL in MeOH) was used as a control. The extent of peak decrease is expressed as a quantitative reduction.

Test [6] has as its target T2, rat lens aldose reductase (RLAR). Particulars: literature value; read-out: RLAR IC50 (References); cited from earlier work.

As to `O=C(OC1OC2COC(=O)c3cc(O)c(O)c(O)c3-c3c(cc(O)c(O)c3O)C(=O)OC2C2OC(=O)c3cc(O)c(O)c(O)c3-c3c(cc(O)c(O)c3O)C(=O)OC12)c1cc(O)c(O)c(Oc2c(C(=O)OC3OC4COC(=O)c5cc(O)c(O)c(O)c5-c5c(cc(O)c(O)c5O)C(=O)OC4C4OC(=O)c5cc(O)c(O)c(O)c5-c5c(cc(O)c(O)c5O)C(=O)OC34)cc(O)c(O)c2O)c1` (stereo not shown) [Agrimoniin (AM), agrimoniin], the concentration for half-maximal inhibition (IC50) in test [1] came out at 13 ± 0.06 µM; in test [4] it was 1.6 ± 0.12 µM. Also, the Inhibition type entry in test [2] was “Noncompetitive”. Besides, the “Inhibition (%) of sorbitol accumulation in rat lens” value in test [3] is listed as 47.6 ± 1.34%. The “Sorbitol Content (mg)/Lens Wet Weight (g)” value in test [3] was determined as 0.77 ± 0.02 mg/g.
Consider `O=C(O)[C@H]1O[C@@H](Oc2cc(O)c3c(=O)cc(-c4ccc(O)c(O)c4)oc3c2)[C@H](O)[C@@H](O)[C@@H]1O` [Luteolin-7-O-glucuronide (LGN), luteolin-7-O-glucuronide], for which the figures for the half-inhibitory concentration (IC50) in test [1], in test [6] and in test [4] were 80.6 ± 0.38 µM, 3.1 µM and 0.7 ± 0.54 µM, respectively. The “peak area reduction (PAR)” value in test [5] was “lower than 20.0%”. The Inhibition type result in test [2] is “Noncompetitive”. Further, the “Inhibition (%) of sorbitol accumulation in rat lens” value in test [3] amounted to 91.8 ± 9.01%. Besides, the “Sorbitol Content (mg)/Lens Wet Weight (g)” value in test [3] is given as 0.12 ± 0.01 mg/g. This compound also came in with an inhibition in test [4] (Table 2, printed under head DPPH/Experiments) of 83.3 ± 0.88%.
